From patent publication US8841121B2, “Vector, vector combinations, methods and kit thereof” (Jawaharlal Nehru Centre for Advanced Scientific Research, priority 2010, dated 2014)
Entries after “also recorded” stand apart in the source; their conditions may differ.

Assays:
[1] = system: HEK 293 cells; assay: Cytotoxicity / cell death by light microscopy in transfected HEK 293 cells; assay type: cell-based; details: for Cytotoxicity / cell death (light microscopy): HEK 293 cells, increasing concentrations of the inhibitor
Method: Tat up-regulates GFP expression (middle panels). […] Thus, a cytotoxic molecule down-regulates GFP without being a Tat inhibitor.
293 cells are transiently transfected with pPRIME-LTR-GFP: anti-RFP miRNA (p604.344 and p604.620), CMV-RFP and EF-1α-Tat (YU-2) vectors. Cells are treated with different concentrations of the SMI 24 h after transfection. GFP and RFP expression is recorded 24 h after vector transfection. LM, Light microscopy.
(§1) DRB (5, 6-dichloro-1-beta-D-ribofuranosylbenzimidazole) a small molecule inhibitor, blocks an essential cellular enzyme CDK9, a kinase, critical for general transcription of many genes and therefore is cytotoxic. […] The Tat inhibition potential as well as cytotoxicity of DRB at 3 different concentrations is tested in HEK 293 cells using plasmid combinations as defined in Table-2. Images of the cells are captured using light microscopy, GFP or RFP filters at 36 h. […] Thus, the GFP-based assay identifies false hits, but not the instant RFP-based assay.

[2] = target: T1, Tat (Human immunodeficiency virus type 1 group M subtype B, UniProt P35965); assay: Tat-inducible GFP / anti-RFP shRNA reporter assay, transient transfection in HeLa cells; assay type: cell-based, HIV-1; set-up: The full-length Tat cDNA from molecular clone YU-2 (subtype-B) is made from cellular RNA of 293 cells; expressed in transfected cells; pcDNA3.1 CMV-Tat (YU-2) or EF-1α-Tat (YU-2) vector; details: 25 μM, 24 h
Method: HeLa cells are transiently transfected with pPRIME-LTR-GFP: anti-RFP miRNA (p604.344 and p604.620), CMV-RFP and EF-1α-Tat (YU-2) vectors. Cells are treated with 25 μM DRB. GFP and RFP expression is recorded 24 h after vector transfection.
(§2) Vector DNA Transfection: All the proof-of-the-concept assays embedded in this document are performed using the transient transfection method formats. Most of the experiments are done using host cells such as HEK293 cells and preferably the standard calcium transfection protocol. Further, few experiments are also performed using HeLa cells. A commercial lipid formulation is used for this and is used following the suppliers instructions.
The assay also identifies SMI which inhibit cellular factors needed for Tat. 5,6-Dichlorobenzimidazole Riboside (DRB) is a potent inhibitor of CDK9 which is a cellular factor necessary for Tat function. […] Thus the assay of the present disclosure also identify such SMI that have an indirect effect on Tat function.

[3] = target: T1, Tat; assay: Tat-inducible GFP / anti-RFP shRNA reporter assay, transient transfection in HEK293 cells; assay type: cell-based, HIV-1; set-up: The full-length Tat cDNA from molecular clone YU-2 (subtype-B) is made from cellular RNA of 293 cells; expressed in transfected cells; host or cells: HEK293 (293) cells, transient transfection; pcDNA3.1 CMV-Tat (YU-2) or EF-1α-Tat (YU-2) vector
Method: as §2
siRNA Transfection: Anti-Tat siRNA molecules are introduced into cells using a commercial lipid-nanoparticle formulation as per the instructions from the supplier.
Adding Tat Inhibitors to the Cell and Screening to Identify Anti-viral/Tat Molecules: The assays are performed using the following format although several variations are introduced depending on the need. • a) Cell Plating: Cells are plated in 96-well culture plates the previous evening and on the morning of the experiment, they are at 30-40% occupancy and in the logarithmic growth phase. • b) DNA Vector Transfection: A combination of 4 vectors is used in most of the assays. The total DNA concentration ranged from 1 to 2 μg per a 24-well plate or 100-200 ng per 96-well plate depending on the context. • 1. Anti-RFP siRNA vector (pPRIME-LTR-GFP: anti-RFP miRNA (p604.344):100-600 ng • 2. Anti-RFP siRNA vector (pPRIME-LTR-GFP: anti-RFP miRNA (p604.620): 100-600 ng • 3. CMV-Tat (YU-2) vector:50-200 ng • 4. CMV-RFP vector (pCMV-RFP-IRES-Puro) (FIGS. 21):50-200 ng
Cells are monitored for GFP or RFP expression after 24 h after subjected to an anti-Tat compound.
Anti-Tat Compound Treatment: A small molecule inhibitor (at concentrations mentioned in individual experiments above) or anti-Tat siRNA (20-100 ng per well) are used. The anti-Tat agent is used immediately after plasmid DNA transfection or after 12-24 h. Cells are removed from the wells by trypsinization and made into single cell suspension in phosphate buffered saline. The mean fluorescence intensity of the cells was determined using flow cytometry. Alternatively, cells were removed from the well using trypsinization and suspended in PBS. The intensity of the fluorescence was quantitatively determined using a standard fluorimeter. Fluorescent protein gene expression is measured at 24, 36, 48 and 72 h from vector transfection, at one time point or multiple time points.
as §1

[4] = target: T2, Tat (Human immunodeficiency virus type 1 group M subtype B, UniProt P04608); details: HeLa cells, increasing concentration; cited from earlier work
T2 construct: host or cells: HeLa cells

[5] = HEK 293 cells, with Tat, increasing/different concentrations of the inhibitor

T1 sequence (P35965 whole entry): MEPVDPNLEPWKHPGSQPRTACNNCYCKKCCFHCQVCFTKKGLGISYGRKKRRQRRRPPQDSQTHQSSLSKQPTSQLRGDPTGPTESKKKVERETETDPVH
T2 sequence (P04608 whole entry): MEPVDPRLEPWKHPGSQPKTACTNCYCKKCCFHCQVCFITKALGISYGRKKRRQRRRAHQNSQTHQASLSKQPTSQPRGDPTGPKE

| Compound | Cytotoxicity / cell death (light microscopy) [1] | GFP expression [3, 5] | RFP expression [3, 5] | also measured |
| --- | --- | --- | --- | --- |
| OC[C@H]1O[C@@H](n2cnc3cc(Cl)c(Cl)cc32)[C@H](O)[C@@H]1O [DRB, 5,6-dichloro-1-beta-D-ribofuranosylbenzimidazole] | enhanced cell death with increasing concentrations; also recorded: increasing levels of cytotoxicity; also recorded: significant levels of cell death | GFP expression also is reduced; also recorded: progressive reduction in GFP expression; also recorded: progressive down-regulation of GFP expression | should have been up-regulated, which is not the case here; also recorded: no concomitant up-regulation of RFP expression | GFP expression [2]: relative down regulation of GFP; RFP expression [2]: relieves Tat-mediated RFP suppression; also recorded: relieves RFP gene expression |
| CN1CC[C@H](c2c(O)cc(O)c3c(=O)cc(-c4ccccc4Cl)oc23)[C@H](O)C1 [Flavipiridol] | progressive increase in cytotoxicity | – | – | – |
| COc1ccc(C(=O)C2=C3OC(C)(C)[C@@H](CC=C(C)C)C[C@@]34C[C@@H](CC=C(C)C)C(C)(C)[C@@](CC=C(C)C)(C2=O)C4=O)cc1O [LTK14] | progressively increased cell death | down regulation of GFP | not enhanced RFP expression | – |
| O=C1CN=C(c2ccc[nH]2)c2cc(Cl)ccc2N1 [R05-3335] | – | – | – | GFP expression [4]: GFP expression is down-regulated |
| CC[C@H](CO)Nc1nc(NCc2ccccc2)c2ncn(C(C)C)c2n1 [Roscovitine] | – | – | – | Cytotoxicity ([1]; 293 cells, 3 μM): cytotoxicity; GFP expression ([3]; 293 cells, 3 μM, 48 h): reduced expression of GFP; RFP expression ([3]; 293 cells, 3 μM, 48 h): not in enhanced expression of RFP |
| COc1cccc2c1C(=O)c1c(O)c3c(c(O)c1C2=O)C[C@@](O)(C(C)=O)C[C@@H]3O[C@H]1C[C@H](NCc2ccc(CN[C@H]3C[C@H](O[C@H]4C[C@](O)(C(C)=O)Cc5c(O)c6c(c(O)c54)C(=O)c4c(OC)cccc4C6=O)O[C@@H](C)[C@H]3O)cc2)[C@H](O)[C@H](C)O1 [WP631] | toxic to the cell at higher concentrations; also recorded: causes apoptosis at higher concentrations | marginally reduced GFP expression; also recorded: marginal down regulation of GFP | small relief in RFP suppression is evident, this is not significant; also recorded: insignificant levels of up-regulation of RFP; also recorded: partially relieves RFP gene expression | Cytotoxicity (cell density under light microscopy) ([1]; 293 cells, WP631 treatment (100 nM)): Low level cytotoxicity; RFP expression ([3]; 293 cells, 100 nM): partially relieves Tat-mediated inhibition of RFP |
